Test results as given in patent US20040077028A1, “Assay for thrombocytopenia associated with administration of platelet GPIIb-IIIa receptor antagonists” (priority 2002, published 2004).
Positions of bridges follow the written chain, without caps; N, C: chain ends. Non-standard residues stand in square brackets, D forms with d. Residues, ends and D or L forms follow the SMILES beside them. hArg = N=C(N)NCCCC[C@H](N)C(=O)O; Mpa = O=C(O)CCS

Legend:
[1] = system: platelets (platelet P-selectin expression); conditions: platelet-rich plasma; 1 μg/ml eptifibatide; 0.5 μM ADP; absence of Mab IV.3; FIG. 3
Procedure: In these experiments, platelet-rich plasma was pre-incubated with FcγRII receptor blocking monoclonal antibody (Mab IV.3, 10 μg/ml). […] The mean fluorescence intensity of platelet P-selectin expression in the presence of 0.5 μM ADP was measured in the presence or absence of unconjugated Y2/51 and in the presence or absence of GPIIb-IIIa receptor antagonist, and with or without an FcγRII receptor blocking monoclonal antibody (Mab IV.3).

[2] = system: platelets (platelet surface P-selectin expression); assay: Platelet surface P-selectin expression by flow cytometry with GPIIb-specific antibody 5B12; format: cell-based; conditions: 5B12 (GPIIb-specific) instead of Y2/51; sub-maximal agonist; FIG. 2
Procedure: After a subject's blood sample has been incubated with a GPIIb-IIIa antagonist as described above, it is diluted (e.g., between 1:10 and 1:15) in autologous platelet-poor plasma (PPP). Platelet activation is assayed. Briefly, an aliquot (e.g., 20 μl) of dilute whole blood (or PRP)-GPIIb-IIIa receptor antagonist mix is incubated for 15-30 minutes at an appropriate temperature (for example, between about 22° C. and 37° C.) with sub-maximal concentration of a platelet agonist (e.g., in 10 μl). Examples of sub-maximal concentrations of platelet agonist are 0.5 μM ADP, 5.0 μM thrombin receptor activating peptide (TRAP), or 1.5 μM iso-TRAP. ADP is not generally used in the assay when the subject is receiving ADP receptor antagonist therapy. To identify platelets and to detect platelet activation, detection reagents are added.
The samples are generally analyzed using flow cytometry. Platelets are identified by light scatter characteristics and labeling of platelets using platelet-specific antibodies (e.g., antibodies that recognize CD41, CD61, CD42a, or CD42b). The binding of antibodies directed against indicators of platelet activation (e.g., anti-P-selectin, CD62P) is assayed using flow cytometry. […] The mean fluorescence intensity and the percent positive (above background) measurements are recorded.
In a second set of experiments, the monoclonal antibody 5B12 (DAKO) which is GPIIb-specific was used instead of Y2/51.

[3] = system: platelets (leukocyte-platelet aggregates) in citrate anticoagulated whole blood; assay: Neutrophil-platelet (leukocyte-platelet) aggregates by flow cytometry in whole blood with Y2/51; format: cell-based; conditions: abciximab 6.5 μg/ml, tirofiban 50 ng/ml, FITC conjugated Y2/51, FIG. 1
Source text: In some embodiments, platelet activation is detected by assaying leukocyte-platelet aggregation. In such protocols, peripheral blood is drawn from a subject into a suitable anticoagulant, for example 3.2% sodium citrate anticoagulant or PPACK. […] ADP is not generally used in the assay when the subject is receiving ADP receptor antagonist therapy. […] The fluorescent conjugates of the reagents are labeled to be distinguishable from each other (e.g., fluorescein and phycoerythrin) so that both can be detected by flow cytometry. […] Samples are generally analyzed by flow cytometry. […] Leukocyte-platelet aggregates are identified using fluorescence histograms displaying fluorescence (above background) of platelet specific markers (e.g., CD41, CD61, CD42a or CD42b) from the gated monocyte, neutrophil or lymphocyte populations. Both the mean fluorescence intensity and the percent positive (above background) measurements are recorded. The relative amount of fluorescence (or percent positive above background) in the subject's sample is compared to a reference. An increase in the amount of fluorescence (or percent positive above background) in the subject's sample compared to the reference indicates an increased amount of platelet activation in the subject's sample. […]

[4] = cited from earlier work
[5] = within the patient population that develops an HACA response

Compound | augmentation by Y2/51 of ADP-mediated platelet activation (P-selectin) in the presence of the antagonist [1] | augmentation of agonist-induced platelet surface P-selectin expression in the presence of the GPIIb-IIIa antagonist with 5B12 [2] | augmentation by Y2/51 of agonist-induced leukocyte-platelet aggregation (neutrophil-platelet aggregates) in the presence of the GPIIb-IIIa antagonist [3] | incidence of thrombocytopenia (platelet count of <100×10^9/L) ([4]; patients receiving the drug for a second time (re-administration)) [%] | incidence of profound thrombocytopenia (platelet count of <20×10^9/L) [4, 5] | incidence of thrombocytopenia (count of <100×10^9/L) [4, 5] [%]
N=C(N)NCCCC[C@@H]1NC(=O)CCSSC[C@@H](C(N)=O)NC(=O)[C@@H]2CCCN2C(=O)[C@H](Cc2c[nH]c3ccccc23)NC(=O)[C@H](CC(=O)O)NC(=O)CNC1=O [eptifibatide] ([Mpa][hArg]GDWPC-NH2; disulfide 1-7) | augments | not augmented |  |  |  | 
CCCCS(=O)(=O)N[C@@H](Cc1ccc(OCCCCC2CCNCC2)cc1)C(=O)O [tirofiban] |  | not augmented | augmented |  |  | 
abciximab |  | observed | did not augment | 3.6 | less than 1% | 3.5
